Broadly, the AC50 is the concentration at which the activity in the assay is half-maximal.

The experiment has as its target hPK-M2 (Homo sapiens, UniProt P14618). The experiment in a line: Luminescent pyruvate kinase-luciferase coupled assay (KinaseGlo). As to conditions: for activation at 57 µM: read-out: hPK, M2 Max. Res. Type of experiment: biochemical. Here is the method:
Luminescent Pyruvate Kinase-Luciferase Coupled Assay.
Production of a luminescent signal based on the generation of ATP by pyruvate kinase was determined by using the ATP-dependent enzyme firefly luciferase. Three μL of substrate mix (at r.t.) in assay buffer (50 mM imidazole pH 7.2, 50 mM KCl, 7 mM MgCl2, 0.01% tween 20, 0.05% BSA) was dispensed into Kalypsys white solid bottom 1,536 well microtiter plates using a bottle-valve solenoid-based dispenser (Kalypsys). The final concentrations of substrates in the assay were 0.1 mM ADP and 0.5 mM PEP. […] Microtiter plates were incubated at r.t. for 1 hour and 2 uL of luciferase detection mix (Kinase-Glo, Promega at 4° C. protected from light) was added and luminescence was read with a ViewLux (Perkin Elmer) using a 5 second exposure/plate. Data was normalized for AC50 values to control columns containing uninhibited enzyme (n), and AC100 inhibition (i) according the following equation: Activation (%)=[(c−n)/(n−i)]*100 where c=compound, n=DMSO neutral, i=no enzyme control. […] Monitoring of activation was accomplished using enzyme at 3× the final concentration.

[1] abbreviates: KinaseGlo, % activation at 57 μM of compound.
Setting [2] is: luciferase-coupled assay, read-out: AC50.
The mark [3] stands for this setting: luminescent pyruvate kinase-luciferase coupled assay (KinaseGlo), tables, read-out: hPK, M2 AC50.

Structures are written as SMILES. Like-named read-outs stand apart in the source and are kept apart here.

hPK-M2, sequence (P14618 whole entry): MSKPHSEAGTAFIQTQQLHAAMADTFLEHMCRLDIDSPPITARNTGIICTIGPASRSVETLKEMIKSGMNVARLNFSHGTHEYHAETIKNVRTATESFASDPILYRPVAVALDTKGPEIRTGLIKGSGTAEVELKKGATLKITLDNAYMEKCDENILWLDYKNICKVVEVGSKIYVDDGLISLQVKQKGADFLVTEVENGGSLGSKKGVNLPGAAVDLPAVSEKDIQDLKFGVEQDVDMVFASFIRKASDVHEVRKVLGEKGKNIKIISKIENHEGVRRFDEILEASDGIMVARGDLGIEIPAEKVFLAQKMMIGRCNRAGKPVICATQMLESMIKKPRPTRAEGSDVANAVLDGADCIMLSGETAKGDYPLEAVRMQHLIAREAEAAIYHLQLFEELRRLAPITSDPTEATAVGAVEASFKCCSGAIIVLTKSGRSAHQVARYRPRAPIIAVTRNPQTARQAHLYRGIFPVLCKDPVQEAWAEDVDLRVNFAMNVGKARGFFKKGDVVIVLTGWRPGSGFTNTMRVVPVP

As for `O=S(=O)(c1ccc2c(c1)OCCO2)N1CCN(S(=O)(=O)c2ccc3c(c2)OCCO3)CC1` [Compound 2, 1,4-bis(2,3-dihydrobenzo[b][1,4]dioxin-6-ylsulfonyl)piperazine], the activation at 57 µM under setting [1] stood at 89.7 ± 2.2%. Besides, the AC50 under setting [2] was 270 nM.
For the compound `COc1ccc(S(=O)(=O)N2CCN(S(=O)(=O)c3ccc(OC)cc3)CC2)cc1` [Compound 3, 1,4-bis(4-methoxyphenylsulfonyl)piperazine], under setting [1], the activation at 57 µM amounted to 87.6 ± 16.2%. Further, under setting [3], the AC50 is 171 nM.
`N#Cc1ccc(S(=O)(=O)N2CCN(S(=O)(=O)c3ccc4c(c3)OCCO4)CC2)cc1` [Compound 4, 4-(4-(2,3-dihydrobenzo[b][1,4]dioxin-6-ylsulfonyl)piperazin-1-ylsulfonyl)benzonitrile]: under setting [1], the activation at 57 µM stood at 44.1 ± 6.1%. Moreover, under setting [3], the AC50 worked out at 29 nM.
Taken in the same sequence, the figures for `O=S(=O)(c1ccc(Cl)cc1)N1CCN(S(=O)(=O)c2ccc3c(c2)OCCO3)CC1` [Compound 5, 1-(4-chlorophenylsulfonyl)-4-(2,3-dihydrobenzo[b][1,4]dioxin-6-ylsulfonyl)piperazine] were 99.6 ± 2.5% and 154 nM.
Taken in the same sequence, the figures for `O=S(=O)(c1ccc(F)cc1)N1CCN(S(=O)(=O)c2ccc3c(c2)OCCO3)CC1` [Compound 6, 1-(2,3-dihydrobenzo[b][1,4]dioxin-6-ylsulfonyl)-4-(4-fluorophenylsulfonyl)piperazine] were 99.7 ± 4.2% and 94 nM.
For `O=S(=O)(c1ccc2c(c1)OCCO2)N1CCN(S(=O)(=O)c2ccccc2F)CC1` [Compound 8, 1-(2,3-dihydrobenzo[b][1,4]dioxin-6-ylsulfonyl)-4-(2-fluorophenylsulfonyl)piperazine], in that order: 114 ± 4% and 89 nM.
Turning to `O=S(=O)(c1ccc2c(c1)OCCO2)N1CCN(S(=O)(=O)c2c(F)cccc2F)CC1` [Compound 9, 1-(2,6-difluorophenylsulfonyl)-4-(2,3-dihydrobenzo[b][1,4]dioxin-6-ylsulfonyl)piperazine], under setting [1], the activation at 57 µM amounted to 94.4 ± 2.8%. Under setting [2], the AC50 was determined as 65 ± 25 nM.
Turning to `O=S(=O)(c1ccc2c(c1)OCCO2)N1CCN(S(=O)(=O)c2cc(F)c(F)cc2F)CC1` [Compound 10, 1-(2,3-dihydrobenzo[b][1,4]dioxin-6-ylsulfonyl)-4-(2,4,5-trifluorophenylsulfonyl)piperazine], under setting [1], the activation at 57 µM was 105 ± 7.6%. In addition, the AC50 under setting [3] was determined as 90 nM.
For `COc1cc(F)c(S(=O)(=O)N2CCN(S(=O)(=O)c3ccc4c(c3)OCCO4)CC2)c(F)c1` [Compound 11, 1-(2,6-difluoro-4-methoxyphenylsulfonyl)-4-(2,3-dihydrobenzo[b][1,4]dioxin-6-ylsulfonyl)piperazine], in that order: 91.8 ± 9.6% and 28 nM.
For the compound `CCCc1cc(F)c(S(=O)(=O)N2CCN(S(=O)(=O)c3ccc4c(c3)OCCO4)CC2)cc1F` [Compound 12, 1-(2,5-difluoro-4-propylphenylsulfonyl)-4-(2,3-dihydrobenzo[b][1,4]dioxin-6-ylsulfonyl)piperazine], the “PKM2 activation, result in words” value is reported as “diminished activity”. In addition, the activation at 57 µM under setting [1] turned out to be 69.2 ± 10.4%. Besides, the AC50 under setting [3] worked out at 757 nM.
With `O=S(=O)(c1ccc2c(c1)OCCO2)N1CCN(S(=O)(=O)c2c(F)ccc(O)c2F)CC1` [Compound 13, 3-(4-(2,3-dihydrobenzo[b][1,4]dioxin-6-ylsulfonyl)piperazin-1-ylsulfonyl)-2,4-difluorophenol], under setting [1], the activation at 57 µM turned out to be 95.3 ± 8.4%. In addition, under setting [2], the AC50 is 52 ± 14 nM.
In the case of `O=S(=O)(c1ccc2c(c1)OCCO2)N1CCN(S(=O)(=O)c2ccc(F)cc2F)CC1` [Compound 14, 1-(2,4-difluorophenylsulfonyl)-4-(2,3-dihydrobenzo[b][1,4]dioxin-6-ylsulfonyl)piperazine], under setting [1], the activation at 57 µM is 113 ± 6.3%. In addition, under setting [3], the AC50 came to 124 nM.
Taken in the same sequence, the figures for `O=S(=O)(c1ccccc1)N1CCN(S(=O)(=O)c2ccc3c(c2)OCCO3)CC1` [Compound 15, 1-(2,3-dihydrobenzo[b][1,4]dioxin-6-ylsulfonyl)-4-(phenylsulfonyl)piperazine] were 108 ± 4.3% and 202 nM.
Taken in the same sequence, the figures for `O=S(=O)(c1cccc(C(F)(F)F)c1)N1CCN(S(=O)(=O)c2ccc3c(c2)OCCO3)CC1` [Compound 16, 1-(2,3-dihydrobenzo[b][1,4]dioxin-6-ylsulfonyl)-4-(3-(trifluoromethyl)phenylsulfonyl)piperazine] were 39.3 ± 6.2% and 209 nM.
As to `COc1cccc(S(=O)(=O)N2CCN(S(=O)(=O)c3ccc4c(c3)OCCO4)CC2)c1` [Compound 17, 1-(2,3-dihydrobenzo[b][1,4]dioxin-6-ylsulfonyl)-4-(3-methoxyphenylsulfonyl)piperazine], under setting [1], the activation at 57 µM turned out to be 90 ± 4.5%. Under setting [3], the AC50 was 113 nM.
For `O=S(=O)(c1ccc2c(c1)OCCO2)N1CCN(S(=O)(=O)c2ccccn2)CC1` [Compound 18, 1-(2,3-dihydrobenzo[b][1,4]dioxin-6-ylsulfonyl)-4-(pyridin-2-ylsulfonyl)piperazine], in that order: 103 ± 6.6% and 542 nM.
On to `O=S(=O)(c1ccc2c(c1)OCCO2)N1CCN(S(=O)(=O)c2cccc[n+]2[O-])CC1` [Compound 19, 2-(4-(2,3-dihydrobenzo[b][1,4]dioxin-6-ylsulfonyl)piperazin-1-ylsulfonyl)pyridine 1-oxide], for which, under setting [1], the activation at 57 µM was 81.5 ± 3.2%. In addition, the AC50 under setting [2] was found to be 254 ± 47 nM. For the same compound, the Emax (luciferase-coupled assay, relative to activation by FBP, read-out: maximum response) stood at 104%.
Turning to `O=S(=O)(c1c(F)cccc1F)C1CCN(S(=O)(=O)c2ccc3c(c2)OCCO3)CC1` [Compound 20, 4-(2,6-difluorophenylsulfonyl)-1-(2,3-dihydrobenzo[b][1,4]dioxin-6-ylsulfonyl)piperidine], the activation at 57 µM under setting [1] was 104 ± 5.1%. Further, under setting [3], the AC50 is 254 nM.
Taken in the same sequence, the figures for `O=S(=O)(c1ccc2c(c1)OCO2)N1CCN(S(=O)(=O)c2c(F)cccc2F)CC1` [Compound 24, 1-(benzo[d][1,3]dioxol-5-ylsulfonyl)-4-(2,6-difluorophenylsulfonyl)piperazine] were 61 ± 1.2% and 191 nM.
With `CN1CCOc2ccc(S(=O)(=O)N3CCN(S(=O)(=O)c4c(F)cccc4F)CC3)cc21` [Compound 25, 6-(4-(2,6-difluorophenylsulfonyl)piperazin-1-ylsulfonyl)-4-methyl-3,4-dihydro-2H-benzo[b][1,4]oxazine], the “hPK, M2 Max. Res.” value under setting [1] worked out at 93.5 ± 5.9%. In addition, the AC50 under setting [3] came to 2710 nM.
Regarding `CC1(C)CCc2cc(S(=O)(=O)N3CCN(S(=O)(=O)c4c(F)cccc4F)CC3)ccc2O1` [Compound 27, 1-(2,6-difluorophenylsulfonyl)-4-(2,2-dimethylchroman-6-ylsulfonyl)piperazine], under setting [1], the activation at 57 µM stood at 119 ± 5.4%. Also, the AC50 under setting [3] came out at 93 nM.
Taken in the same sequence, the figures for `Cn1ccc2cc(S(=O)(=O)N3CCN(S(=O)(=O)c4c(F)cccc4F)CC3)ccc21` [Compound 28, 5-(4-(2,6-difluorophenylsulfonyl)piperazin-1-ylsulfonyl)-1-methyl-1H-indole] were 91.1 ± 4.7% and 387 nM.
Taken in the same sequence, the figures for `O=S(=O)(c1ccc2c(c1)OCCO2)C1CCN(S(=O)(=O)c2c(F)cccc2F)CC1` [Compound 30, 1-(2,6-difluorophenylsulfonyl)-4-(2,3-dihydrobenzo[b][1,4]dioxin-6-ylsulfonyl)piperidine] were 110 ± 5.4% and 863 nM.
For the compound `O=S(=O)(c1ccc2c(c1)OCCO2)N1CCCN(S(=O)(=O)c2c(F)cccc2F)CC1` [Compound 31, 1-(2,6-difluorophenylsulfonyl)-4-(2,3-dihydrobenzo[b][1,4]dioxin-6-ylsulfonyl)-1,4-diazepane], the activation at 57 µM under setting [1] worked out at 120 ± 7.3%. Also, the AC50 under setting [2] was 866 nM.
For `O=S(=O)(NCCNS(=O)(=O)c1c(F)cccc1F)c1ccc2c(c1)OCCO2` [Compound 32, N-(2-(2,6-difluorophenylsulfonamido)ethyl)-2,3-dihydrobenzo[b][1,4]dioxine-6-sulfonamide], the activation at 57 µM under setting [1] stood at 60.3 ± 20.6%.
Consider `O=S(=O)(NCCCNS(=O)(=O)c1c(F)cccc1F)c1ccc2c(c1)OCCO2` [Compound 33, N-(3-(2,6-difluorophenylsulfonamido)propyl)-2,3-dihydrobenzo[b][1,4]dioxine-6-sulfonamide], for which the activation at 57 µM under setting [1] turned out to be 106 ± 5.1%. Under setting [3], the AC50 came out at 3850 ± 530 nM.
For `O=S(=O)(NCCCCNS(=O)(=O)c1c(F)cccc1F)c1ccc2c(c1)OCCO2` [Compound 34, N-(4-(2,6-difluorophenylsulfonamido)butyl)-2,3-dihydrobenzo[b][1,4]dioxine-6-sulfonamide], in that order: 113 ± 14.6% and 7970 ± 4050 nM.
Taken in the same sequence, the figures for `O=S(=O)(NCCCCCNS(=O)(=O)c1c(F)cccc1F)c1ccc2c(c1)OCCO2` [Compound 35, N-(5-(2,6-difluorophenylsulfonamido)pentyl)-2,3-dihydrobenzo[b][1,4]dioxine-6-sulfonamide] were 114 ± 1.4% and 2330 ± 160 nM.
Taken in the same sequence, the figures for `O=S(=O)(NCCCCCCNS(=O)(=O)c1c(F)cccc1F)c1ccc2c(c1)OCCO2` [Compound 36, N-(6-(2,6-difluorophenylsulfonamido)hexyl)-2,3-dihydrobenzo[b][1,4]dioxine-6-sulfonamide] were 110 ± 3% and 4830 ± 310 nM.

The record behind these values is patent US8937067B2, “Activators of human pyruvate kinase” (The United States of America, as represented by the …, priority 2008, dated 2015).
